The source of these data is ChEMBL document CHEMBL1165859, “Synthesis, antiproliferative, acute toxicity and assessment of antiandrogenic activities of some newly synthesized steroidal lactams” (Eur J Med Chem, 2010).

The nature of the first data set: Cytotoxicity against Balb/C mouse macrophages assessed as cell viability after 24 hrs by MTT assay. It is filed as cell-based. The note with it: Macrophage.
Consider `C[C@]12CC[C@H](OC(=O)c3ccc([N+](=O)[O-])cc3)CC1=CC[C@@H]1[C@@H]2CC[C@]2(C)NC(=O)CC[C@@H]12`, for which the LC50 (commonly the concentration that kills 50% of the test population) was 27.8 µM.

Regarding `C[C@]12CC[C@H](OC(=O)COc3ccccc3)CC1=CC[C@@H]1[C@@H]2CC[C@]2(C)NC(=O)CC[C@@H]12`, the LC50 was 11.7 µM.

For `C[C@]12CC[C@H](OC(=O)c3ccc(O)cc3)CC1=CC[C@@H]1[C@@H]2CC[C@]2(C)NC(=O)CC[C@@H]12`, the 50% lethal concentration (LC50) is 75 µM.

Regarding `COc1ccc(C(=O)O[C@H]2CC[C@@]3(C)C(=CC[C@@H]4[C@@H]3CC[C@]3(C)NC(=O)CC[C@@H]43)C2)cc1`, the LC50 was 8.4 µM.

Turning to `C[C@]12CC[C@H](OC(=O)c3ccc(Cl)cc3)CC1=CC[C@@H]1[C@@H]2CC[C@]2(C)NC(=O)CC[C@@H]12`, the 50% lethal concentration (LC50) is 100 µM.

Take `Cc1ccc(C(=O)O[C@H]2CC[C@@]3(C)C(=CC[C@@H]4[C@@H]3CC[C@]3(C)NC(=O)CC[C@@H]43)C2)cc1`: the LC50 came to 22.8 µM.

`C[C@]12CC[C@H](OC(=O)CCl)CC1=CC[C@@H]1[C@@H]2CC[C@]2(C)NC(=O)CC[C@@H]12`: the median lethal concentration (LC50) came to 94.1 µM.

Regarding `C[C@]12CC[C@H](OC(=O)c3ccccc3)CC1=CC[C@@H]1[C@@H]2CC[C@]2(C)NC(=O)CC[C@@H]12`, the LC50 was 43.6 µM.

As to `C[C@]12CC[C@H](OC(=O)c3ccc(N)cc3)CC1=CC[C@@H]1[C@@H]2CC[C@]2(C)NC(=O)CC[C@@H]12`, the LC50 amounted to 25.1 µM.

Regarding `CC(C)(C)NC(=O)[C@H]1CC[C@H]2[C@@H]3CC[C@H]4NC(=O)C=C[C@]4(C)[C@H]3CC[C@]12C` [FINASTERIDE], the LC50 stood at 28.2 µM.

Another data set can be described thus: Cytotoxicity against Balb/C mouse macrophages assessed as cell mortality at 0.01 to 5 ug/ml after 24 hrs by MTT assay.
Settings: not given
As to `C[C@]12CC[C@H](OC(=O)c3ccc(O)cc3)CC1=CC[C@@H]1[C@@H]2CC[C@]2(C)NC(=O)CC[C@@H]12`, the mortality (usually the share of the test organisms that died) at 24 h was 20%.
